{"source": "patent US9567524B2", "about": "“Polymerizable liquid crystal compound, and compensation film, antireflective film, and display device including the same” (SAMSUNG ELECTRONICS CO., LTD., priority 2015, dated 2017)", "assay": "Thermogravimetric analysis (TGA), thermal stability", "assay_type": "physicochemical", "details": "Trios V3.0, 10° C./min, N2 atmosphere; FIG. 7", "method": "Thermogravimetric analysis (TGA) and differential scanning calorimetry (DSC) analysis of the polymerizable liquid crystal compound according to Synthesis Example 1 are performed by using Trios V3.0 (TA Instrument, 10° C./min, N2 atmosphere). FIG. 7 is a drawing showing the thermogravimetric analysis of the polymerizable liquid crystal compound 1a-5 according to Synthesis Example 1, and FIG. 8 is a drawing showing the differential scanning calorimetry (DSC) analysis of the polymerizable liquid crystal compound 1a-5 according to Synthesis Example 1.\nReferring to FIG. 7, the polymerizable liquid crystal compound 1a-5 of Synthesis Example 1 is decomposed at a temperature of greater than or equal to 300° C."}
{"smiles": "C=CC(=O)OCCCOc1ccc(C(=O)OCc2ccc(C(=O)Oc3ccc(OC(=O)c4ccc(COC(=O)c5ccc(OCCCOC(=O)C=C)cc5)cc4)cc3)cc2)cc1", "note": "[Compound 1a-5]", "values": [{"measurement": "Decomposition temperature (TGA)", "result": "greater than or equal to 300 °C"}]}
